Data set [1] can be described thus: Apparent permeability in human Caco-2 cells at 20 uM measured for 35 to 95 mins by LC-MS/MS analysis. As to conditions: time 35-95 min. The format is ADME, cell-based. (In general: Caco-2 monolayers are a common model of the intestinal barrier.)
Data set [2] addresses Histone-lysine N-methyltransferase EZH2 (Homo sapiens, UniProt Q15910, Y641F). As to the kind of experiment: Inhibition of N-terminal FLAG-tagged recombinant full-length human EZH2 Y641F mutant in PRC2 complex expressed in baculovirus infected Sf9 cells using H3K27me0 biotin/SAM as substrate preincubated for 10 mins followed by substrate addition measured after 4 hrs by HTRF assay. The format is cell-based. (TR-FRET usually uses a lanthanide donor and a delayed reading to cut background.)

Data set [3] concerns KARPAS-422. As to the kind of experiment: Antiproliferative activity against human KARPAS-422 cells expressing EZH2 Y641N mutant assessed as inhibition of cell proliferation incubated for 6 days by CCK8 assay. The class given is functional, cell-based. As to conditions: KARPAS-422, 144 h.
Data set [4] has as its system Pfeiffer. As to the kind of experiment: Antiproliferative activity against human Pfeiffer cells expressing EZH2 […] mutant assessed as inhibition of cell proliferation incubated for 6 days by CCK8 assay. The class given is functional, cell-based. To be noted: 144 h. A general note: Tetrazolium dyes change colour on reduction, which living cells bring about.
Data set [5] in a line: Metabolic stability in human liver microsomes assessed as half life preincubated for 10 mins followed by NADPH addition measured upto 60 mins by LC-MS/MS analysis. The class given is ADME, Microsome. As to conditions: time < 70 min.
Data set [6] deals with Pfeiffer. Kind of data set: Downregulation of H3K27me3 level in human Pfeiffer cells at 1 uM incubated for 96 hrs followed by compound washout measured after 48 hrs by Western blot analysis. The format is functional, cell-based. To be noted: time 144.0 hrs.
Data set [7] relates to KARPAS-422. Kind of data set: Antiproliferative activity against human KARPAS-422 cells expressing EZH2 mutant assessed as inhibition of cell proliferation incubated for 6 days by CCK8 assay. As to conditions: time 6.0 day. The class given is functional, cell-based.
The subject of a further data set is Karpas-1106P. Kind of data set: Antiproliferative activity against human KARPAS-1106P cells expressing wild-type EZH2 assessed as inhibition of cell proliferation incubated for 6 days by CCK8 assay. The class given is functional, cell-based.
The next data set concerns SU-DHL-2. Kind of data set: Antiproliferative activity against human SUDHL2 cells expressing EZH2 mutant assessed as inhibition of cell proliferation incubated for 6 days by CCK8 assay. The format is functional, cell-based. To be noted: SU-DHL-2, 144 h.
The next data set concerns HT. As to the kind of experiment: Antiproliferative activity against human HT cells expressing wild-type EZH2 assessed as inhibition of cell proliferation incubated for 6 days by CCK8 assay. As to conditions: 144 h. The class given is functional, cell-based.
The test system of another data set is SU-DHL10. As to the kind of experiment: Antiproliferative activity against human SU-DHL-10 cells expressing EZH2 mutant assessed as inhibition of cell proliferation incubated for 6 days by CCK8 assay. To be noted: time 6.0 day. The format is functional, cell-based.
A further data set concerns DB. Kind of data set: Antiproliferative activity against human DB cells expressing wild-type EZH2 assessed as inhibition of cell proliferation incubated for 6 days by CCK8 assay. The class given is functional, cell-based. To be noted: 144 h.
A further data set deals with RL. As to the kind of experiment: Antiproliferative activity against human RL cells expressing EZH2 mutant assessed as inhibition of cell proliferation incubated for 6 days by CCK8 assay. The class given is functional, cell-based.
For a further data set, the system named is WSUDLCL2. Kind of data set: Antiproliferative activity against human WSUDLCL2 cells expressing wild-type EZH2 assessed as inhibition of cell proliferation incubated for 6 days by CCK8 assay. The format is functional, cell-based. To be noted: WSUDLCL2, 144 h.
Data set [8] can be described thus: Antiproliferative activity against human WILL-1 cells expressing wild-type EZH2 assessed as inhibition of cell proliferation incubated for 6 days by CCK8 assay. The class given is functional, cell-based. As to conditions: WILL-1, 144 h.
For another data set, the system named is OPM-2. Kind of data set: Antiproliferative activity against human OPM-2 cells expressing wild-type EZH2 assessed as inhibition of cell proliferation incubated for 6 days by CCK8 assay. The class given is functional, cell-based. As to conditions: OPM-2, 144 h.
The subject of data set [9] is Pfeiffer. Kind of data set: Antiproliferative activity against human Pfeiffer cells expressing EZH2 mutant assessed as inhibition of cell proliferation incubated for 6 days by CCK8 assay. As to conditions: time 6.0 day. The format is functional, cell-based.
For a further data set, the system named is U2932. Kind of data set: Antiproliferative activity against human U2932 cells expressing wild-type EZH2 assessed as inhibition of cell proliferation incubated for 6 days by CCK8 assay. The format is functional, cell-based. To be noted: U2932, 144 h.

Molecules are shown by their SMILES. pIC50: −log10 of the molar value. Active and inactive are the calls of the source. No cut-off for these calls is given here.

A word on the Papp: it is the rate of passage across a membrane or cell layer, normalised by area and donor concentration. By pIC50 is commonly meant the negative decadic logarithm of the IC50, by convention in mol/L. The half-life is how long it takes for the measured level to halve.

Chain of Histone-lysine N-methyltransferase EZH2 (Q15910 whole entry Y641F): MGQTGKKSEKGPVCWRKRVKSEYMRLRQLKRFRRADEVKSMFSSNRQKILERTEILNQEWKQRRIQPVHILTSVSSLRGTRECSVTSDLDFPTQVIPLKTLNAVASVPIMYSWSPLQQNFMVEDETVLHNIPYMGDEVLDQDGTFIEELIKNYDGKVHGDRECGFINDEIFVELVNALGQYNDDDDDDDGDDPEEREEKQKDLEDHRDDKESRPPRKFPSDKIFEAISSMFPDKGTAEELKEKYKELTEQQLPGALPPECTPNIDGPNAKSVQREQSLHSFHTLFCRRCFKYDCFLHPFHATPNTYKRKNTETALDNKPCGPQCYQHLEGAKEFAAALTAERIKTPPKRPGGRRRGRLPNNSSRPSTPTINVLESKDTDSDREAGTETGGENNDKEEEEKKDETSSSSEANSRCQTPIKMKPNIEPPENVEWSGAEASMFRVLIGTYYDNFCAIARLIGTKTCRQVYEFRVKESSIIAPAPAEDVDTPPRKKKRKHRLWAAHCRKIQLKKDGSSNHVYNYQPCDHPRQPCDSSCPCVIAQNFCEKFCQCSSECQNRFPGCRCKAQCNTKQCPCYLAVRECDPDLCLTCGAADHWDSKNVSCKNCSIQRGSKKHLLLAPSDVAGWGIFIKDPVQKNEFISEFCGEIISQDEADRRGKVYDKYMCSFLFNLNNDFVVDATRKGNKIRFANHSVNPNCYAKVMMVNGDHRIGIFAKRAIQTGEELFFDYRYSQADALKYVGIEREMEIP

`C=CC(=O)N(C)c1cc(C(=O)NCc2c(C)cc(C)[nH]c2=O)c(C)c(N(CC)C2CCOCC2)c1`: the Papp at 20 µM in data set [1] was 0.054 ×10⁻⁶ cm/s. The values for the negative-log IC50 (pIC50) (in data set [2]; with KARPAS-422 [3]; with Pfeiffer [4]) were 7.46, 6.23 and 6.71, respectively. In [5], the half-life worked out at 12.7 min.
Turning to `CC#CC(=O)Nc1cc(C(=O)NCc2c(C)cc(C)[nH]c2=O)c(C)c(N(CC)C2CCOCC2)c1`, the negative-log IC50 (pIC50) in data set [2] was 7.96.
Consider `C/C=C/C(=O)Nc1cc(C(=O)NCc2c(C)cc(C)[nH]c2=O)c(C)c(N(CC)C2CCOCC2)c1`, for which the negative-log IC50 (pIC50) in data set [2] was 7.68.
The same measure, in the same setting: the result for `C=C(C)C(=O)Nc1cc(C(=O)NCc2c(C)cc(C)[nH]c2=O)c(C)c(N(CC)C2CCOCC2)c1` reads 7.42.
Regarding `C=CC(=O)NCc1cc(C(=O)NCc2c(C)cc(C)[nH]c2=O)c(C)c(N(CC)C2CCOCC2)c1`, the pIC50 in data set [2] is 7.41; in the data set on KARPAS-422 [3], 6.27; in the data set on Pfeiffer [4], 6.71. In [5], the half-life is 24 min.
On to `CCC(=O)N(C)c1cc(C(=O)NCc2c(C)cc(C)[nH]c2=O)c(C)c(N(CC)C2CCOCC2)c1`, for which the negative-log IC50 (pIC50) is 7.30 in [2], less than 5.52 in the data set with KARPAS-422 [3] and 5.60 in the data set with Pfeiffer [4].
In the same order, the values of `CCC(=O)NCc1cc(C(=O)NCc2c(C)cc(C)[nH]c2=O)c(C)c(N(CC)C2CCOCC2)c1` are 6.86, less than 5.52 and less than 5.52.
The matching figures for `CCC(=O)Nc1cc(C(=O)NCc2c(C)cc(C)[nH]c2=O)c(C)c(N(CC)C2CCOCC2)c1`: 7.42, less than 5.52 and 5.71.
Turning to `CC[C@H](C)n1cc(C)c2c(C(=O)NCc3c(C)cc(C)[nH]c3=O)cc(-c3ccc(N4CCNCC4)nc3)cc21`, the result in the data set with Pfeiffer [6] was inactive.
As for `CCN(c1cc(NC(=O)/C=C/CN2CCOCC2)cc(C(=O)NCc2c(C)cc(C)[nH]c2=O)c1C)C1CCOCC1`, the pIC50 in [2] is 7.68.
Still for that read-out and setting: the result for `CCN(c1cc(NC(=O)/C=C/CN(C)C)cc(C(=O)NCc2c(C)cc(C)[nH]c2=O)c1C)C1CCOCC1` reads 7.44.
In the case of `CCN(c1cc(-c2ccc(CN3CCOCC3)cc2)cc(C(=O)NCc2c(C)cc(C)[nH]c2=O)c1C)C1CCOCC1` [TAZEMETOSTAT], the inhibition entry in the data set with KARPAS-422 [7], in the data set on Karpas-1106P (time 6.0 day), with SU-DHL10, in the data set on RL (time 6.0 day) and in the data set on Pfeiffer [9] was “Active” throughout. Further, in [1], the Papp at 20 µM amounted to 1.06 ×10⁻⁶ cm/s. Further, the pIC50 (in the data set on SU-DHL-2; in the data set with HT; with DB; with WSUDLCL2; in [8]; in the data set with OPM-2) was less than 5.52 throughout. Moreover, the negative-log IC50 (pIC50) with KARPAS-422 [3] is 6.53; in the data set with Pfeiffer [4], 7.47; in the data set with U2932, less than 5.52. Besides, the outcome in the data set with Pfeiffer [6] was inactive. Also, the half-life in data set [5] is 20.2 min.
For the compound `C=CC(=O)Nc1cc(C(=O)NCc2c(C)cc(C)[nH]c2=O)c(C)c(N(CC)C2CCOCC2)c1`, in [1], the Papp at 20 µM was found to be 0.045 ×10⁻⁶ cm/s. The pIC50 in data set [2] is 8.00; in the data set with KARPAS-422 [3], less than 5.52; with Pfeiffer [4] it was 6.01. In [5], the half-life stood at 9.4 min.
Regarding `C=CC(=O)NCc1cc(C(=O)NCc2c(OC)cc(C)[nH]c2=O)c(C)c(N(CC)C2CCOCC2)c1`, the pIC50 in [2] is 8.05; with KARPAS-422 [3] it was 5.84; with Pfeiffer [4], 6.50. The half-life in data set [5] came to 35.3 min.
With `CCC(=O)NCc1cc(C(=O)NCc2c(SC)cc(C)[nH]c2=O)c(C)c(N(CC)C2CCOCC2)c1`, the inhibition entry with KARPAS-422 [7], in the data set with SU-DHL10 and with Pfeiffer [9] was “Active” in each case. For the same compound, the pIC50 with Karpas-1106P (144 h), in the data set on SU-DHL-2, with HT, in the data set with DB, in the data set on RL (144 h) and in the data set on WSUDLCL2 was less than 5.52 each time. The pIC50 is less than 5.52 in data set [8]; 6.87 in [2]; less than 5.52 in the data set with OPM-2; 6.15 in the data set with KARPAS-422 [3]; 6.83 with Pfeiffer [4]; less than 5.52 in the data set on U2932. In the data set on Pfeiffer [6], the outcome was inactive.
Regarding `C=CC(=O)NCc1cc(C(=O)NCc2c(CCC)cc(C)[nH]c2=O)c(C)c(N(CC)C2CCOCC2)c1`, the pIC50 in data set [2] is 8.40; in the data set on KARPAS-422 [3], less than 5.52; in the data set with Pfeiffer [4] it was 5.87.
`C=CS(=O)(=O)Nc1cc(C(=O)NCc2c(C)cc(C)[nH]c2=O)c(C)c(N(CC)C2CCOCC2)c1`: the pIC50 in [2] was 6.76.
